Source: PMC6393295, “Archaeal NSUN6 catalyzes m^5C72 modification on a wide-range of specific tRNAs” (Nucleic Acids Research, 2018)
Each block holds one compound with its values, some of them ahead of it.

Experiments:
PhNSun6 (PH1991) [1] = molecular target: T1, PhNSun6 (PH1991) (Pyrococcus horikoshii, UniProt O57712); experiment: X-ray crystal structure of the complex, […] A; type: binding; conditions: co-crystallised with 1 mM ligand, pH 6.5, 16 °C; Rossmann-fold cofactor site; no tRNA
T1 construct: full length (domains mapped to residues 1-389); E. coli Rosetta (DE3); 2 chains in P1 crystal
T1 sequence (O57712 1-389): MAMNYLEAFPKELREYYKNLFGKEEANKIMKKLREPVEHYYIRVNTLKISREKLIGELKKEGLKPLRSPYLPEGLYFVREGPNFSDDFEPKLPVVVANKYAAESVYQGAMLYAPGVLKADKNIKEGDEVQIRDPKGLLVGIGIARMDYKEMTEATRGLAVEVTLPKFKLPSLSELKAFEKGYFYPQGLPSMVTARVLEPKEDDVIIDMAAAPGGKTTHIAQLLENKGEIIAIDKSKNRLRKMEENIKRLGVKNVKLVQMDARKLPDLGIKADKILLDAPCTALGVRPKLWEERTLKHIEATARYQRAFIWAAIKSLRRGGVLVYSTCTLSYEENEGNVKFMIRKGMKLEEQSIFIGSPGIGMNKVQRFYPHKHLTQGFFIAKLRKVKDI

PhNSun6 (PH1991) [2] = molecular target: T1, PhNSun6 (PH1991); experiment: X-ray crystal structure of the complex, […] A; type: binding; conditions: co-crystallised with 1 mM ligand, pH 6.5, 16 °C, Rossmann-fold cofactor site, no tRNA

SMILES: Nc1ncnc2c1ncn2[C@@H]1O[C@H](CSCC[C@H](N)C(=O)O)[C@@H](O)[C@H]1O [SAH, S-adenosyl-homocysteine]
X-ray crystal structure of the complex, 2.18 A (PhNSun6 (PH1991) [1]): form the binding pocket for the cofactor SAH, as shown in Figure 5B

X-ray crystal structure of the complex, 2.50 A (PhNSun6 (PH1991) [2]; methyl donor, also turned over with tRNA at 65 °C, pH 7.5): PhNSun6 complexed with SAM, SFG and SAH
SMILES: C[S+](CC[C@H](N)C(=O)O)C[C@H]1O[C@@H](n2cnc3c(N)ncnc32)[C@H](O)[C@@H]1O (stereo partly drawn) [SAM, S-adenosyl-methionine]

X-ray crystal structure of the complex, 2.50 A (PhNSun6 (PH1991) [2]): PhNSun6 complexed with SAM, SFG and SAH
SMILES: Nc1ncnc2c1ncn2[C@@H]1O[C@H](C[C@@H](N)CC[C@H](N)C(=O)O)[C@@H](O)[C@H]1O [SFG, sinefungin]
